In patent EP4813463A2, “TYK2 INHIBITORS AND COMPOSITIONS AND METHODS THEREOF” (Lynk Pharmaceuticals Co. Ltd., priority 2023, dated 2024):

Key:
[1] = test system: T cell transfer colitis model; assay: SCID mice colitis by T cell transfer pharmacodynamics study; assay type: in vivo, C.B17-SCID mice
Description: This study aimed to obtain the pharmacodynamics of the test article in T cell transfer colitis model after oral administration. For induction of colitis, naive CD4^+ T cells (CD4^+CD44^lowCD62L^high) were adoptively transferred from MHC-compatible Balb/c mice to C.B17-SCID recipients. Balb/c splenocytes were […] selected for CD4^+ T cells using the Mouse Naïve CD4^+ T Cell Isolation Kit (Cat #19765, […]), 1.5×10^6 cells in a volume of 100 µL PBS were transferred to each recipient by i.v. injection on Day 0. C.B17-SCID mice obtained from the Beijing Vital River Laboratory Animal Technology Co., Ltd. Starting on Day 0 and continuing daily through Day 32, mice (n = 8 per group) were dosed with 0 (vehicle control), 45 mg/kg PO BID compound 7A in a vehicle containing 5% DMSO, 65% PEG400, and 30% DDH2O (v/v/v).
Each mouse was scored three times weekly for pathological features, including stool consistency, and body weight loss. Individual scores were combined to generate the DAI, the maximum score was 6. At the termination of the study, the colon was collected for measuring colon index (weight, length, and density), emptied of fecal contents opened longitudinally along the mesenteric border, and formed a Swiss-Roll from the proximal to the distal end, processed to paraffin-embedded blocks to generate 5-µm-thick sections for hematoxylin and eosin (H&E) staining. Slices were evaluated in a blinded manner and histological scores were assessed based on the following parameters: inflammation, epithelial defects, crypt atrophy, dysplasia, and the area affected by dysplasia.

[2] = test system: Anti-CD40-induced colitis; assay: SCID mice colitis by anti-CD40-driven pharmacodynamics study; assay type: in vivo, C.B17-SCID mice; details: for Colon density / Colon length (cm) / Colon weight: Day 5, mean ± SEM, n = 10
Description: This study aimed to obtain the pharmacodynamics of the test article in colitis model by Anti-CD40-driven after oral administration. C.B17-SCID mice obtained from the Zhejiang Vital River Laboratory Animal Technology Co., Ltd. Starting on Day -1 and continuing daily through Day 4, mice (n = 10 per group) were dosed with 0 (vehicle control), 15, 45, or 100 mg/kg PO BID compound 7A in vehicle containing 5% DMSO, 65% PEG400, and 30% DDH2O (v/v/v). In addition, on Day 0, 30 minutes after administration, colitis was induced with a single intraperitoneal injection of 200 µL of anti-CD40 mAb (BE0016-2, BioXcell) in DPBS, the Sham group mice were intraperitoneally injected with 200 µL of DPBS.
Each mouse was scored daily for pathological features, including stool consistency, presence of blood stool, and body weight loss. Individual scores were combined to generate the Disease Activity Index (DAI) which was calculated daily for each mouse, the maximum score was 12. On Day 5, all animals were euthanized, colon was collected for measuring colon index (weight, length, and density).

[3] = Brain pharmacokinetic studies in rats; assay type: in vivo, Sprague-Dawley rats; details: for half-life / Kp / AUC: rats, iv, 3 mg/kg, solution; for Kp: read-out: Brain AUC/Systemic AUC; for brain exposure in Rats: result in words
Description: Pharmacokinetic profiles of test articles were evaluated in fasted Sprague-Dawley rats. Different kinds of formulations were designed to ensure test articles fully dissolved and wouldn't precipitate in 1:10 SGF or FaSSIF dilution. Typically, Rats were dosed with 3 mg/kg and 5 mg/kg by intravenous injection and oral gavage, respectively. The animal was restrained manually at the designated time points, approximately 150 µL of blood sample was collected via jugular vein for serial bleeding into K2EDTA tubes. The blood samples were maintained in wet ice first and centrifuged to obtain plasma (2000g, 4°C, 5 min) within 30 minutes post sampling. Anesthetizing the rat with the Isoflurane vaporizer to 2%~3% and place its back on the operation table. Spread the animal limbs and pin the limbs on the operation table. Make a cut along the sternum about 4cm long, low enough to expose the sternum's end. Expose the heart and use a 25-gauge needle connected with a 20 mL syringe filled with 20 mL of cold saline to pierce the left ventricle. Maintain the placement of the needle, and slowly push the syringe plunger to wash the brain with saline. The perfusion will be finished within about 2 min and then take the brain out of the body carefully without damaging the tissue. Dry the tissue on filtrate paper, which should be placed on ice, and then weigh the brain tissue and store at -70 °C and analyzed by LC/MS/MS for quantification. PK parameter values, including, but not necessarily limited to, the maximum plasma concentrations (Cmax), and the area under the plasma concentration vs. time curve (AUC) from time zero to 24-hour (AUC0-24h) were determined using WinNonlin program. Table 13. Systemic Pharmacokinetic Parameters in Sprague-Dawley Rats

[4] = Pharmacokinetic study in dogs; assay type: in vivo; details: dog, plasma; Beagle dogs, intravenous, 2 mg/kg, solution
Description: (§1) Pharmacokinetic profiles of test articles were evaluated in fasted mouse, Sprague-Dawley rats and Beagle dogs. After dosing, blood samples were collected at each time point. For IV injection group, time points were set at 5, 15, 30 min, and then 1, 2, 4, 8 and 24 hours after dosing. For oral gavage group,#time points were set at 15, 30 min, and then 1, 2, 4, 8, and 24 hours. Blood was collected into appropriately labeled tubes containing K2EDTA as the anticoagulant. Plasma was obtained within 1 hours of blood collection by centrifugation at 8000×g and 4 °C for 6 minutes, and then stored at -20 °C until analyzed by LC/MS/MS for quantification. PK parameter values, including, but not necessarily limited to, the maximum plasma concentrations (Cmax), the time to reach the maximum concentrations (Tmax), and the area under the plasma concentration vs. time curve (AUC) from time zero to 24-hour (AUC0-24h) were determined using WinNonlin program. Table 17. Pharmacokinetic Parameters in Beagle dogs by Intravenous Administration

[5] = Pharmacokinetic study in mice; assay type: in vivo; details: mouse, plasma, solution
Description: as §1

[6] = 45mpk PO BID, Day 0 through Day 32, mean ± SEM, n = 8
[7] = Sprague-Dawley, rat, systemic (plasma)
[8] = Sprague-Dawley, rat, systemic (plasma), read-out: AUC

[2H]C([2H])([2H])NC(=O)c1cnc(NC(=O)C2CC2)cc1Nc1cnn2ccc([C@H](O)C(F)(F)F)c(OC)c12 [Example 7A, (S)-6-(cyclopropanecarboxamido)-4-((4-methoxy-5-(2,2,2-trifluoro-1-hydroxyethyl)pyrazolo[1,5-a]pyridin-3-yl)amino)-N-(methyl-d3)nicotinamide]
Colon density [1, 6]: 27.66 ± 1.24 mg/cm
Colon length (cm) [1, 6]: 7.94±0.32 cm
Colon weight [1, 6]: 218.38 ± 10.13 mg
Spleen index [1, 6]: 3.08 ± 0.36 mg/g
disease-related weight loss ([1]; FIG. 2. A, result in words): inhibiting
DAI scores ([1]; FIG. 2. B, result in words): inhibiting
absolute value of Th1 and Th17 cells ([1]; FIG. 3. B-C, result in words): significantly reduced
percentage value of CD4^+T cells and Th17 cells in whole blood ([1]; FIG. 3. D-E, result in words): significantly reduced
CD4^+T cells in colonic tissue ([1]; FIG. 4. A, result in words): significantly reduced
colonic histopathological changes ([1]; FIG. 4. B, result in words): inhibiting
colitis symptoms ([1]; orally twice daily, result in words): alleviated colitis symptoms
effect on Anti-CD40-induced colitis ([2]; 15, 45, or 100 mg/kg PO BID, result in words): significant protective effect
Colon density ([2]; 15mpk PO BID): 46.99 ± 2.71 mg/cm
Colon length (cm) ([2]; 15mpk PO BID): 5.61±0.20 cm
Colon weight ([2]; 15mpk PO BID): 260.20 ± 10.58 mg
Colon density ([2]; 45mpk PO BID): 37.00 ± 1.36 mg/cm
Colon length (cm) ([2]; 45mpk PO BID): 6.34±0.13 cm
Colon weight ([2]; 45mpk PO BID): 234.20 ± 9.04 mg
Colon density ([2]; 100mpk PO BID): 29.23 ± 0.91 mg/cm
Colon length (cm) ([2]; 100mpk PO BID): 7.15±0.15 cm
Colon weight ([2]; 100mpk PO BID): 208.40 ± 5.53 mg
body weight loss ([2]; FIG. 1. A, result in words): reduction
DAI score ([2]; FIG. 1. B, result in words): reduction

COC(=O)c1cnc(NC(=O)C2CC2)cc1Nc1nn(C)c2ccc([C@H](OC)C(F)(F)F)c(OC)c12 [Example 45B, Methyl (S)-6-(cyclopropanecarboxamido)-4-((4-methoxy-1-methyl-5-(2,2,2-trifluoro-1-methoxyethyl)-1H-indazol-3-yl)amino)nicotinate]
half-life ([3]; Sprague-Dawley, rat, brain): 2.23 h
Kp ([3]; Sprague-Dawley, rat, brain): 0.96
half-life [3, 7]: 2.28 h
AUC [3, 8]: 1.28 µg·h/mL
AUC ([3]; brain): 1235 ng·h/g
brain exposure in Rats [3]: good brain exposure

COC(=O)c1cnc(NC(=O)C2CC2)cc1Nc1nn(C)c2ccc([C@H](O)C(F)(F)F)c(OC)c12 [Example 48A, Methyl (S)-6-(cyclopropanecarboxamido)-4-((4-methoxy-1-methyl-5-(2,2,2-trifluoro-1-hydroxyethyl)-1H-indazol-3-yl)amino)nicotinate]
half-life ([3]; Sprague-Dawley, rat, brain): 2.04 h
Kp ([3]; Sprague-Dawley, rat, brain): 0.19
half-life [3, 7]: 1.62 h
AUC [3, 8]: 1.53 µg·h/mL
AUC ([3]; brain): 288 ng·h/g
brain exposure in Rats [3]: good brain exposure

[2H]C([2H])([2H])NC(=O)c1cnc(NC(=O)C2CC2)cc1Nc1nn(C)c2ccc([C@H](OC([2H])([2H])[2H])C(F)(F)F)c(OC)c12 [Example 55A, (S)-6-(cyclopropanecarboxamido)-4-((4-methoxy-1-methyl-5-(2,2,2-trifluoro-1-(methoxy-d3)ethyl)-1H-indazol-3-yl)amino)-N-(methyl-d3)nicotinamide]
AUC [4]: 9.98 µg·h/mL
Vd [4]: 0.678 L/kg
clearance [4]: 0.211 L/h/kg
half-life [4]: 3.64 h
AUC ([5]; intravenous, 3 mg/kg): 7.6 µg·h/mL
Vd ([5]; intravenous, 3 mg/kg): 0.819 L/kg
clearance ([5]; intravenous, 3 mg/kg): 0.394 L/h/kg
half-life ([5]; intravenous, 3 mg/kg): 2.57 h
AUC ([5]; oral, 5 mg/kg): 7.49 µg·h/mL
Cmax ([5]; oral, 5 mg/kg): 2.3 µg/mL
bioavailability ([5]; oral, 5 mg/kg): 59.2%
half-life ([5]; oral, 5 mg/kg): 2.38 h
